Molecular target: T1, full-length human PKCι (Homo sapiens, UniProt P41743)
T1 construct: Recombinant, full-length human PKCι expressed in Sf21 insect cells is also commercially available; purchased; host or cells: Sf21 insect cells
T1 sequence (P41743 1-596): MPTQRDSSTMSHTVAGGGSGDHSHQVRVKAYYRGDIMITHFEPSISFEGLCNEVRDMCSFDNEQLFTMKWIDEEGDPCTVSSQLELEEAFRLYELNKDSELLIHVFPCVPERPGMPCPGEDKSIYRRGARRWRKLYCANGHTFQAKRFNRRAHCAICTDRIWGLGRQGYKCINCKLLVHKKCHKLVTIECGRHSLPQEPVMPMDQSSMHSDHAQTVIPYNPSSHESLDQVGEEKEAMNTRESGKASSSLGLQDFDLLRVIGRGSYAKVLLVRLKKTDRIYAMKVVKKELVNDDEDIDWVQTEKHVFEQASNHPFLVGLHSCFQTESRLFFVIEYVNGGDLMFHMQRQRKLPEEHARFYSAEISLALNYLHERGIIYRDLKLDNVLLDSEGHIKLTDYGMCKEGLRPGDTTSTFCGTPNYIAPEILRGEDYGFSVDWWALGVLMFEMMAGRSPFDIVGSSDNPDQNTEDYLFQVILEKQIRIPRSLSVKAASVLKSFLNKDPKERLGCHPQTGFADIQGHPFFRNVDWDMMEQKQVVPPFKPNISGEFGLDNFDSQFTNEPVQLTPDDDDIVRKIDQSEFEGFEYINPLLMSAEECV
Assay: PKCι IC50 IMAP assay, full-length PKCι at 150 μM ATP
Assay type: biochemical
Details: read-out: IC50 in IMAP assay against full length PKCi at 150 μM ATP
Summary of the method: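 Compounds in 4% final DMSO are mixed with Sf21-derived full-length human PKCι (typically 15 pM) and 100 nM FAM-labelled pseudosubstrate peptide, then started with 150 μM ATP. Reaction runs 60 min at room temperature, is quenched with IMAP development reagent for 2 h, and fluorescence polarisation is measured to derive IC50.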

| IC50 [nM] | Compound |
| --- | --- |
| < 100 | FC1(F)CC(Nc2cc(-c3nc(N4CCNCC4)c4c(C5CC5)cncc4n3)ccn2)C1 [Example 585, [4-(5-Cyclopropyl-4-piperazin-1-yl-pyrido[3,4-d]pyrimidin-2-yl)-pyridin-2-yl]-(3,3-difluorocyclo-butyl)-amine] |
| 100 to 1000 | c1ccc(C[C@H]2CN(c3nc(-c4ccncc4)nc4cnccc34)CCN2)cc1 [Example 16, (3S)-3-benzyl-1-[2-(pyridin-4-yl)pyrido[3,4-d]-pyrimidin-4-yl]-piperazine] |
| < 100 | CN1CCN(c2cccc(Nc3cc(-c4nc(N5CC[C@H](O)[C@H](O)C5)c5c(C6CC6)cncc5n4)ccn3)c2)CC1 (racemic) [Example 602, (+/−)-(cis)-1-(5-Cyclopropyl-2-{2-[3-(4-methyl-piperazin-1-yl)-phenylamino]-pyridin-4-yl}-pyrido[3,4-d]pyrimidin-4-yl)-piperidine-3,4-diol] |
| < 100 | c1ccc2c(c1)[nH]c1nccc(-c3nc(N4CCNCC4)c4ccncc4n3)c12 [Example 2091, 4-(4-Piperazin-1-yl-pyrido[3,4-d]pyrimidin-2-yl)-9H-pyrido[2,3-b]indole] |
| < 100 | CNCCNC(=O)C1CCN(c2nc(-c3ccnc(Nc4c(F)cccc4F)c3)nc3cncc(C4CC4)c23)CC1 [Example 744, 1-{5-Cyclopropyl-2-[2-(2,6-difluoro-phenylamino)-pyridin-4-yl]-pyrido[3,4-d]pyrimidin-4-yl}-piperidine-4-carboxylic acid (2-methylamino-ethyl)-amide] |
| < 100 | Fc1cc(C2CC2)cnc1Nc1cc(-c2nc(N3CCNCC3)c3c(C4CC4)cncc3n2)ccn1 [Example 812, (5-Cyclopropyl-3-fluoro-pyridin-2-yl)-[4-(5-cyclopropyl-4-piperazin-1-yl-pyrido[3,4-d]pyrimidin-2-yl)-pyridin-2-yl]-amine] |
| < 100 | FC(F)(F)c1ccnc(Nc2cc(-c3nc(N[C@@H]4CCNC4)c4ccncc4n3)ccn2)c1 [Example 350, (R)-Pyrrolidin-3-yl-{2-[2-(4-trifluoromethyl-pyridin-2-ylamino)-pyridin-4-yl]-pyrido[3,4-d]pyrimidin-4-yl}-amine] |
| < 100 | CCc1cncc2nc(-c3ccncc3)nc(N3CCNCC3)c12 [Example 136, 1-[5-ethyl-2-(pyridin-4-yl)pyrido[3,4-d]pyrimidin-4-yl]piperazine] |
| < 100 | CN1CCN(c2cccc(Nc3cc(-c4nc(N5CC[C@H](O)C5)c5c(C6CC6)cncc5n4)ccn3)c2)CC1 [Example 727, (S)-1-(5-Cyclopropyl-2-{2-[3-(4-methyl-piperazin-1-yl)-phenylamino]-pyridin-4-yl}-pyrido[3,4-d]pyrimidin-4-yl)-pyrrolidin-3-ol] |
| 100 to 1000 | N#Cc1ccnc(Nc2cc(-c3nc(N4CCC(O)CC4)c4c(C5CC5)cncc4n3)ccn2)c1 [Example 482, 2-{4-[5-Cyclopropyl-4-(4-hydroxy-piperidin-1-yl)-pyrido[3,4-d]pyrimidin-2-yl]-pyridin-2-ylamino}-isonicotinonitrile] |
| 100 to 1000 | N#CC1CCN(c2nc(-c3ccnc4[nH]c(C(F)(F)F)cc34)nc3cncc(C4CC4)c23)CC1 [Example 1241, 1-[5-Cyclopropyl-2-(2-trifluoromethyl-1H-pyrrolo[2,3-b]pyridin-4-yl)-pyrido[3,4-d]pyrimidin-4-yl]-piperidine-4-carbonitrile] |
| 1000 to 10000 | CC[C@H]1CN(c2nc(-c3ccncc3)nc3cnccc23)CCN1 [Example 61, (3S)-3-ethyl-1-[2-(pyridin-4-yl)-pyrido[3,4-d]-pyrimidin-4-yl]-piperazine] |
| < 100 | N#Cc1ccnc(Nc2cc(-c3nc(N4CCC(O)C(O)C4)c4c(C5CC5)cncc4n3)ccn2)c1 (racemic) [Example 485, (±)-2-{4-[5-Cyclopropyl-4-cis-3,4-dihydroxy-piperidin-1-yl)-pyrido[3,4-d]pyrimidin-2-yl]-pyridin-2-ylamino}-isonicotinonitrile] |
| < 100 | FC1(F)CCC(Nc2cc(-c3nc(N4CCNCC4)c4c(C5CC5)cncc4n3)ccn2)C1 (stereo not drawn) [Example 621, [4-(5-Cyclopropyl-4-piperazin-1-yl-pyrido[3,4-d]pyrimidin-2-yl)-pyridin-2-yl]-(3,3-difluoro-cyclopentyl)-amine] |
| 100 to 1000 | N[C@H](CNc1nc(-c2ccncc2)nc2c(-c3cncnc3)nccc12)Cc1ccccc1 [Example 108, N-[(2S)-2-amino-3-phenylpropyl]-2-(pyridin-4-yl)-8-(pyrimidin-5-yl)pyrido[3,4-d]pyrimidin-4-amine] |
| < 100 | Fc1nc(N2CCOCC2)ccc1Nc1cc(-c2nc(N3CCNCC3)c3c(C4CC4)cncc3n2)ccn1 [Example 731, [4-(5-Cyclopropyl-4-piperazin-1-yl-pyrido[3,4-d]pyrimidin-2-yl)-pyridin-2-yl]-(2-fluoro-6-morpholin-4-yl-pyridin-3-yl)-amine] |
| < 100 | c1ccn2nc(Nc3cc(-c4nc(N5CCNCC5)c5c(C6CC6)cncc5n4)ccn3)nc2c1 [Example 743, [4-(5-Cyclopropyl-4-piperazin-1-yl-pyrido[3,4-d]pyrimidin-2-yl)-pyridin-2-yl]-[1,2,4]triazolo[1,5-a]pyridin-2-yl-amine] |
| < 100 | Cc1cncc2nc(-c3ccncc3)nc(N3CCNCC3)c12 [Example 138, 1-[5-methyl-2-(pyridin-4-yl)pyrido[3,4-d]pyrimidin-4-yl]piperazine] |
| 100 to 1000 | N#Cc1cccc(Nc2cc(-c3nc(N4CC[C@H](O)[C@H](O)C4)c4c(C5CC5)cncc4n3)ccn2)c1 [Example 711, 3-{4-[5-Cyclopropyl-4-((3R,4S)-3,4-dihydroxy-piperidin-1-yl)-pyrido[3,4-d]pyrimidin-2-yl]-pyridin-2-ylamino}-benzonitrile] |
| 1000 to 10000 | CS(=O)(=O)C[C@H]1CN(c2nc(-c3ccnc(Nc4ccc(F)cc4)c3)nc3cncc(C4CC4)c23)CCN1 [Example 771, {4-[5-Cyclopropyl-4-((R)-3-methanesulfonyl-methyl-piperazin-1-yl)-pyrido[3,4-d]pyrimidin-2-yl]-pyridin-2-yl}-(4-fluoro-phenyl)-amine] |
| 1000 to 10000 | COc1cncc2nc(-c3ccnc(Nc4ccccc4)c3)nc(N3CCC(N4CCOCC4)CC3)c12 [Example 354, {4-[5-Methoxy-4-(4-morpholin-4-yl-piperidin-1-yl)-pyrido[3,4-d]pyrimidin-2-yl]-pyridin-2-yl}-phenyl-amine] |
| < 100 | COc1cncc2nc(-c3ccnc(Nc4cc(F)ccc4F)c3)nc(N3CCNCC3)c12 [Example 440, (2,5-Difluoro-phenyl)-[4-(5-methoxy-4-piperazin-1-yl-pyrido[3,4-d]pyrimidin-2-yl)-pyridin-2-yl]-amine] |
| < 100 | COc1cncc2nc(-c3ccnc(Nc4nc(C)c(C)o4)c3)nc(N3CCNCC3)c12 [Example 203, (4,5-Dimethyl-oxazol-2-yl)-[4-(5-methoxy-4-piperazin-1-yl-pyrido[3,4-d]pyrimidin-2-yl)-pyridin-2-yl]-amine] |
| 100 to 1000 | CS(=O)(=O)Nc1cccc(-c2nccc3c(NC[C@@H](N)Cc4ccccc4)nc(-c4ccncc4)nc23)c1 [Example 88, N-{3-[4-((S)-2-Amino-3-phenyl-propylamino)-2-pyridin-4-yl-pyrido[3,4-d]pyrimidin-8-yl]-phenyl}-methanesulfonamide] |
| 10000 to 40000 | O=C1CN(c2nc(-c3ccncc3)nc3cnccc23)CCN1 [Example 27, 4-[2-(pyridin-4-yl)pyrido[3,4-d]-pyrimidin-4-yl]-piperazin-2-one] |
| < 100 | Cc1cc2c(-c3nc(N4CCNCC4)c4c(C5CCC5)cncc4n3)ccnc2[nH]1 [Example 2112, 5-Cyclobutyl-2-(2-methyl-1H-pyrrolo[2,3-b]pyridin-4-yl)-4-piperazin-1-yl-pyrido[3,4-d]pyrimidine] |
| 10000 to 40000 | CC(=O)N[C@H](CNc1nc(-c2ccncc2)nc2cnccc12)Cc1ccccc1 [Example 79, N—[(S)-1-Benzyl-2-(2-pyridin-4-yl-pyrido[3,4-d]pyrimidin-4-ylamino)-ethyl]-acetamide] |
| < 100 | COc1cncc2nc(-c3ccnc(Nc4ccccc4)c3)nc(N3CCN[C@H](CO)C3)c12 [Example 222, {(S)-4-[5-Methoxy-2-(2-phenylamino-pyridin-4-yl)-pyrido[3,4-d]pyrimidin-4-yl]-piperazin-2-yl}-methanol] |
| < 100 | COc1cncc2nc(-c3ccnc(Nc4ccc(N5CCOCC5)nc4)c3)nc(N[C@@H]3CCNC3)c12 [Example 330, {5-Methoxy-2-[2-(6-morpholin-4-yl-pyridin-3-ylamino)-pyridin-4-yl]-pyrido[3,4-d]pyrimidin-4-yl}-(R)-pyrrolidin-3-yl-amine] |

| Compound | IC50 [nM] |
| --- | --- |
| CN(c1nc(-c2ccnc(Nc3ncc(Cl)cc3F)c2)nc2cncc(C3CC3)c12)C1CCNCC1 [Example 2151, {2-[2-(5-Chloro-3-fluoro-pyridin-2-ylamino)-pyridin-4-yl]-5-cyclopropyl-pyrido[3,4-d]pyrimidin-4-yl}-methyl-piperidin-4-yl-amine] | < 100 |

— patent US9914730B2, “Azaquinazoline inhibitors of Atypical protein Kinase C” (Ignyta, Inc., priority 2012, dated 2018)
